Assay results taken from PubChem BioAssay (NCI).
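Each compound was tested at five concentrations against cells in 96-well plates for 48 hours. TGI is the concentration that stops growth completely.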

Tests used:
Test in all cases: NCI tumour cell line growth inhibition, 48 h
OVCAR-8 ovarian = system: OVCAR-8 ovarian
SNB-75 CNS = system: SNB-75 CNS
NCI-H226 lung = system: NCI-H226 lung
SR leukemia = system: SR leukemia
786-0 renal = system: 786-0 renal
OVCAR-4 ovarian = system: OVCAR-4 ovarian
MOLT-4 leukemia = system: MOLT-4 leukemia
UACC-62 melanoma = system: UACC-62 melanoma
A498 renal = system: A498 renal
MDA-MB-231 breast = system: MDA-MB-231 breast
NCI-H23 lung = system: NCI-H23 lung
SK-MEL-2 melanoma = system: SK-MEL-2 melanoma
NCI-H522 lung = system: NCI-H522 lung
HS 578T breast = system: HS 578T breast
OVCAR-3 ovarian = system: OVCAR-3 ovarian
PC-3 prostate = system: PC-3 prostate
OVCAR-5 ovarian = system: OVCAR-5 ovarian
SNB-19 CNS = system: SNB-19 CNS
UO-31 renal = system: UO-31 renal
NCI-H460 lung = system: NCI-H460 lung
ACHN renal = system: ACHN renal
MDA-N = system: MDA-N
HOP-92 NSCLC = system: HOP-92 NSCLC
RXF 393 renal = system: RXF 393 renal
IGROV1 ovarian = system: IGROV1 ovarian
MCF7 breast = system: MCF7 breast
M14 melanoma = system: M14 melanoma
U251 CNS = system: U251 CNS
MDA-MB-435 = system: MDA-MB-435
HCT-116 colon = system: HCT-116 colon
A549 NSCLC = system: A549 NSCLC
HCT-15 colon = system: HCT-15 colon
CAKI-1 renal = system: CAKI-1 renal
RPMI-8226 leukemia = system: RPMI-8226 leukemia
BT-549 breast = system: BT-549 breast
SK-MEL-28 melanoma = system: SK-MEL-28 melanoma
SF-295 CNS = system: SF-295 CNS
UACC-257 melanoma = system: UACC-257 melanoma
KM12 colon = system: KM12 colon
SF-539 CNS = system: SF-539 CNS
MALME-3M melanoma = system: MALME-3M melanoma
SW-620 colon = system: SW-620 colon
T-47D breast = system: T-47D breast
DU-145 prostate = system: DU-145 prostate
COLO 205 colon = system: COLO 205 colon
EKVX NSCLC = system: EKVX NSCLC
K-562 leukemia = system: K-562 leukemia
TK-10 renal = system: TK-10 renal
SK-MEL-5 melanoma = system: SK-MEL-5 melanoma
HT29 colon = system: HT29 colon
SN12C renal = system: SN12C renal
NCI/ADR-RES ovarian = system: NCI/ADR-RES ovarian
SF-268 CNS = system: SF-268 CNS
LOX IMVI melanoma = system: LOX IMVI melanoma

Measured: TGI

O=C(O)C(Cc1ccccc1-c1ccccc1)C(=O)O
> 100 µM: OVCAR-8 ovarian | SNB-75 CNS | NCI-H226 lung | SR leukemia | 786-0 renal | OVCAR-4 ovarian | MOLT-4 leukemia | UACC-62 melanoma | A498 renal | MDA-MB-231 breast | NCI-H23 lung | SK-MEL-2 melanoma | NCI-H522 lung | HS 578T breast | OVCAR-3 ovarian | PC-3 prostate | OVCAR-5 ovarian | SNB-19 CNS | UO-31 renal | NCI-H460 lung | ACHN renal | MDA-N | HOP-92 NSCLC | RXF 393 renal | IGROV1 ovarian | MCF7 breast | M14 melanoma | U251 CNS | MDA-MB-435 | HCT-116 colon | A549 NSCLC | HCT-15 colon | CAKI-1 renal | RPMI-8226 leukemia | BT-549 breast | SK-MEL-28 melanoma | SF-295 CNS | UACC-257 melanoma | KM12 colon | SF-539 CNS | MALME-3M melanoma | SW-620 colon | T-47D breast | DU-145 prostate | COLO 205 colon | EKVX NSCLC | K-562 leukemia | TK-10 renal | SK-MEL-5 melanoma | HT29 colon | SN12C renal | NCI/ADR-RES ovarian | SF-268 CNS | LOX IMVI melanoma
